Measurements from ChEMBL document CHEMBL5236632, “Membrane-Active Nonivamide Derivatives as Effective Broad-Spectrum Antimicrobials: Rational Design, Synthesis, and Biological Evaluation” (J Med Chem, 2022).
≈ marks a conversion by molar mass, not a printed value. Calls of active or inactive are those of the source. The rule behind the calls is not given here.

What was measured:
[1] = system: Staphylococcus aureus; experiment: Eradication of biofilm in Staphylococcus aureus ATCC 29213 assessed as biofilm viability at 6.25 ug/ml measured after 24 hrs by crystal violet staining assay; type: functional; settings: dose 6.25 µg/ml
[2] = Selectivity ratio, HC50 for hemolytic activity in rabbit RBC to MIC for antibacterial activity against Pseudomonas aeruginosa ATCC 9027; type: toxicity; settings: rabbit red blood cells
[3] = system: Acinetobacter baumannii; experiment: Antibacterial activity against Acinetobacter baumannii ATCC 17978 assessed as inhibition of visible growth measured after 18 to 24 hrs by broth dilution method; type: functional; settings: time 18-24 hrs
[4] = Selectivity ratio, HC50 for hemolytic activity in rabbit RBC to MIC for antibacterial activity against Staphylococcus aureus ATCC 29213; type: toxicity; settings: rabbit red blood cells
[5] = system: Klebsiella pneumoniae; experiment: Antibacterial activity against Klebsiella pneumoniae ATCC 10031 assessed as inhibition of visible growth measured after 18 to 24 hrs in presence of 175.5 ug/ml K+ by broth dilution method; type: functional; settings: time 18-24 hrs
[6] = system: Cell membrane; experiment: Induction of membrane depolarization in Staphylococcus aureus ATCC 29213 assessed as increase in fluorescence intensity at 4 to 8 times MIC measured for 60 mins by DiSC3(5) dye based fluorescence method; type: subcellular
[7] = system: Staphylococcus aureus; experiment: Antibacterial activity against Staphylococcus aureus ATCC 29213 assessed as reduction in bacterial load at 8 time of MIC measured after 8 hrs by time kill assay; type: functional
[8] = system: Staphylococcus aureus; experiment: Antibacterial activity against methicillin-resistant Staphylococcus aureus NCTC 10442 assessed as inhibition of visible growth measured after 18 to 24 hrs by broth dilution method; type: functional; settings: time 18-24 hrs
[9] = system: Klebsiella pneumoniae; experiment: Antibacterial activity against Klebsiella pneumoniae ATCC 10031 assessed as inhibition of visible growth measured after 18 to 24 hrs by broth dilution method; type: functional; settings: time 18-24 hrs

**Q.** With `CCCCCCCCC(=O)NCc1ccc(OCCCCCCNC(=N)N)c(OCCCCCCNC(=N)N)c1` as the compound, how does the Activity [1] read?
**A.** 10.9%

**Q.** What about the selectivity ratio [2] of the same compound?
**A.** 21.6

**Q.** And the MIC [3]?
**A.** 3.12 µg/mL (≈ 5.56 µM)

**Q.** And the selectivity ratio [4]?
**A.** 173

**Q.** What about the MIC [5] of the same compound?
**A.** 0.78 µg/mL

**Q.** What about the Activity [6] of the same compound?
**A.** Active

**Q.** And the Activity [7]?
**A.** 3.59 log10CFU/ml

**Q.** And the MIC [8]?
**A.** 0.39 µg/mL (≈ 0.694 µM)

**Q.** And the MIC [9]?
**A.** 1.56 µg/mL (≈ 2.78 µM)
